Legend:
[1] = described ranking of GA isoforms; cited from earlier work
[2] = target: T1, Arabidopsis thaliana GID1C based sensor (Arabidopsis thaliana, UniProt Q940G6); assay: in planta assay: GA sensor in ga1-3 mutant plants sprayed with GA3, luciferase imaging; format: in vivo; conditions: ga1-3 plants containing the sensor, sprayed with 100 μM GA3 solution vs mock; FIG. 4
T1 construct: expressed in transfected cells; host or cells: Arabidopsis thaliana ga1-3 mutant plants (Ler background), Agrobacterium floral dip, construct IR216 (35S::GID1CLUC in pFK210)
Source text: To validate in planta the results obtained in yeast, the inventors introduced the GA sensors under the control of the constitutive viral promoter 35S into Arabidopsis thaliana plants. The constructs IR208 and IR216 were independently introduced using the floral dip method of Agrobacterium-mediated transformation into the Arabidopsis thaliana Ler-1 (Landsberg erecta) wild-type strain and its isogenic ga1-3 mutant strain (containing a deletion in the gene for the enzyme that catalyzes an early step in the synthesis of GA: Sun et al., Plant Cell, 1992, 4, 119-128). Plants were grown in soil under Basta™ selection and short day conditions (8h light/16h dark).
In this case, the Arabidopsis thaliana GID1C based sensor produced a faster and stronger signal than the Arabidopsis thaliana GID1B based sensor. To ascertain whether the reporter system according to the invention could quantitatively report the presence of endogenous bioactive GA isoforms, the inventors grew the Arabidopsis thaliana Ler-1 wild-type plants containing the Arabidopsis thaliana GID1C based sensor along with Arabidopsis thaliana GA3ox1-GUS and GA3ox2-GUS reporter lines. The GA sensor was active in a pattern that indicated the presence of active forms of GA in emerging leaves and at the base and vasculature of older leaves. […]

[3] = target: T2, GID1B based sensor (GID1B.5) (Arabidopsis thaliana, UniProt Q9LYC1, V53A); assay: yeast solid media luciferase assay, GID1B based sensor (GID1B.5) with overlapping firefly luciferase fragments; format: cell-based; conditions: GA3 100 μM vs mock (100% ethanol), FIG. 7
T2 construct: a GID1B based sensor with overlapping firefly luciferase fragments (plasmid IR235); expressed in transfected cells; host or cells: Saccharomyces cerevisiae (yeast), plasmid printed as IR235
Protocol: In order to assess the impact of the presence of overlapping parts of firefly luciferase on the GID1B based sensor (GID1B.5) at the split point, a GID1B based sensor with overlapping firefly luciferase fragments (plasmid IR235) was compared in a Y2H assay to a GID1B based sensor without overlapping firefly luciferase fragments (plasmid IR241).
Four representative colonies were selected and plated onto Nylon membranes as described before. After 3 days at 30° C. the membranes were incubated in selective media containing luciferase substrate for 4 hours in dark at room temperature. Each replicate was subsequently transferred to plates containing selective media supplemented with luciferase substrate. […] Luciferase activity was recorded as indicated before.

[4] = target: T3, GID1C based sensor peptide with co-expression of a DELLA protein (GAI) (Arabidopsis thaliana, UniProt Q940G6); assay: yeast liquid luciferase assay, GID1C based sensor with co-expression of the DELLA protein GAI; format: cell-based; conditions: Saccharomyces cerevisiae, GAI co-expressed; FIG. 6D
T3 construct: expressed in transfected cells; host or cells: Saccharomyces cerevisiae AH109, plasmids IR214 (GID1CLUC-pDest22) and IR236 (GAI in pDEST32)
Protocol: Two representative colonies were selected and plated onto Nylon membranes as described before. After 3 days at 30° C. the membranes were incubated in selective media containing luciferase substrate for 4 hours in dark at room temperature. […] Luciferase activity was recorded as indicated before. For liquid assays, the inventors inoculated one representative colony for each version of the sensor in 5 ml of selective media (YNB, MPBlo, supplemented with CSM Trp^−, Bio 101) containing luciferase substrate and grown under shaking at 28° C. for 18 hours. […] Plates were incubated for 16 hours at 28° C. in a cabinet and luciferase activity was recorded during the entire period of the experiment using a Topcount™ device (Perkin Elmer).
First, the coding sequence of the DELLA protein GAI (At1g14920) was cloned into the yeast plasmid pDEST32 (Invitrogen) yielding the construct IR236. Subsequently, yeast cells were transformed with the plasmids IR206 or IR214 in combination with the empty pDEST32 vector or IR236. Following the same approach than described before in Example 3, we assayed 4 GA isoforms, the same four than in the former assay. The experimental setting was the same than in Example 3 with the difference that the selective media used was deficient in Trp and Leu (YNB, MPBlo, supplemented with CSM Trp^−Leu^−, Bio 101) to select for the presence of both plasmids within the yeast cells. […]

T1 sequence (Q940G6 with tags, fused parts or gaps): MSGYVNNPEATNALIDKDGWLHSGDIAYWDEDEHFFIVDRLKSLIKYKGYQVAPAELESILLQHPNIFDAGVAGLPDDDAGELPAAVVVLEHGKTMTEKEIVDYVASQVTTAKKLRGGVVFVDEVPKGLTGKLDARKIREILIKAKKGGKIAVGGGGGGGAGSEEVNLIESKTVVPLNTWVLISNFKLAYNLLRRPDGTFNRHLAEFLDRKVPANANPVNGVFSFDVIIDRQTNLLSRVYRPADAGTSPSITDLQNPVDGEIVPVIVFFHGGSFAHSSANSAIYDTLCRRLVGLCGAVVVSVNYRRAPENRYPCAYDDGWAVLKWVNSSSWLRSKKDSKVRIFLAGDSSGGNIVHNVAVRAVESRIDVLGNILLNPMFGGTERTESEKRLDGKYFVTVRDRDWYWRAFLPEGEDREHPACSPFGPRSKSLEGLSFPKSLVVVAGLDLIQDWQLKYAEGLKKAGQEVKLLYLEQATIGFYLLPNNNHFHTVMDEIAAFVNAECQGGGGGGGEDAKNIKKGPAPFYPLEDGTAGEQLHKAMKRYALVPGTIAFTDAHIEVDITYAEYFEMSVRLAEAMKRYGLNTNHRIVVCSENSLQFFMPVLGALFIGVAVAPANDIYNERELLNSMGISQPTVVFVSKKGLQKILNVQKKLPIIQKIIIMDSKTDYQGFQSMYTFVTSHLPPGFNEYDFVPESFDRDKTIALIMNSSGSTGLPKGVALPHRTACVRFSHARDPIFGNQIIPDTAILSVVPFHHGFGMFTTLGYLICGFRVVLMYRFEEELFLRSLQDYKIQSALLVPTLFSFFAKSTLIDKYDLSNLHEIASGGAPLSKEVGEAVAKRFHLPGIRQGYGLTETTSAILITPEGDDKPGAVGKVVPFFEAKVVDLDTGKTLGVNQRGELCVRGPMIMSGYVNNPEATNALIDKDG
T3 sequence (Q940G6 with tags, fused parts or gaps): as above
T3 sequence (Q9LQT8 2-533 partner limits assumed): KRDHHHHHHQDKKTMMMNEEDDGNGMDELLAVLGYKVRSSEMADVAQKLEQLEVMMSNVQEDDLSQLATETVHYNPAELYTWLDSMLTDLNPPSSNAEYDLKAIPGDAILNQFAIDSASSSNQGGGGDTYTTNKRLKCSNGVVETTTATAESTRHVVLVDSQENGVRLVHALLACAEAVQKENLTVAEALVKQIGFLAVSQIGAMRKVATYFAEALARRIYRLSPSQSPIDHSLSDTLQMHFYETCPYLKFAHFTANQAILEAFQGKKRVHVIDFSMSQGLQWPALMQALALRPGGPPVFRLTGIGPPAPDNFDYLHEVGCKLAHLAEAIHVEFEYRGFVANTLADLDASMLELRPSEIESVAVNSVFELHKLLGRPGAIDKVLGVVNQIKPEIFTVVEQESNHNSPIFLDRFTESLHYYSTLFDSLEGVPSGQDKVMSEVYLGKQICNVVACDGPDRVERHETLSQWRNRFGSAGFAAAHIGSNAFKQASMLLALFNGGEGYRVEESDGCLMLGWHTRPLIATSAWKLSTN
T2 sequence (Q9LYC1 other isoform, or with tags, fused parts or gaps V53A): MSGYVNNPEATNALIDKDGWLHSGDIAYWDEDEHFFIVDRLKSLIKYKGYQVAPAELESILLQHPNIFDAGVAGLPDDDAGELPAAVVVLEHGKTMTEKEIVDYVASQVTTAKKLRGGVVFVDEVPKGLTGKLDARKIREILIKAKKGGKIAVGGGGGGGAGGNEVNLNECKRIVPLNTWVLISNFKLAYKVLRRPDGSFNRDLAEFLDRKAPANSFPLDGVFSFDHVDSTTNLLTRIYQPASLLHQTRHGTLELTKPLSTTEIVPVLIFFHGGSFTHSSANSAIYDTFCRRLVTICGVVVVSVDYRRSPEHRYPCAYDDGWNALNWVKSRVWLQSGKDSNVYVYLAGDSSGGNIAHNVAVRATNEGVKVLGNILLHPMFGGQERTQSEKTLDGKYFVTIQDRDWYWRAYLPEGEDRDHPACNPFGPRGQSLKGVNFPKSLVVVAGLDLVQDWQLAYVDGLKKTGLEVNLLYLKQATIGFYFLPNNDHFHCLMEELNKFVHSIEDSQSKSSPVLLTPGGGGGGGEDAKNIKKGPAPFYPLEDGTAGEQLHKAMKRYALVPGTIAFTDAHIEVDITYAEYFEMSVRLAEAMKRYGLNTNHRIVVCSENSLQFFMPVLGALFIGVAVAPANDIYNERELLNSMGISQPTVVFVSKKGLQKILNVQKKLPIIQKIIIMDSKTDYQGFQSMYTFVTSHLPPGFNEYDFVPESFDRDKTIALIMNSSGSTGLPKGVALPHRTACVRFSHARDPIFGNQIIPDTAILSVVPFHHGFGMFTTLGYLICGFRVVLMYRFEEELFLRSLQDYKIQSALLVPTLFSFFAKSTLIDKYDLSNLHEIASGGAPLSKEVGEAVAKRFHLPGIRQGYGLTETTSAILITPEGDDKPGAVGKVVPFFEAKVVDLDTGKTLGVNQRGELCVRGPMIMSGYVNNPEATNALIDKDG

luciferase signal [4]	SMILES	biological activity in planta assay [1]	bioluminescence upon luciferase substrate application [2]	luciferase signal [3]
	C=C1C[C@]23C[C@@]1(O)CC[C@H]2[C@@]12CC[C@H](O)[C@@](C)(C(=O)O1)[C@H]2[C@@H]3C(=O)O [GA1]	less activity		
	C=C1C[C@]23C[C@@]1(O)CC[C@H]2[C@@]12C=C[C@H](O)[C@@](C)(C(=O)O1)[C@H]2[C@@H]3C(=O)O [GA3, gibberellic acid]		showed bioluminescence	clearly higher
triggered luciferase signal	C=C1C[C@]23C[C@H]1CC[C@H]2[C@@]12CC[C@H](O)[C@@](C)(C(=O)O1)[C@H]2[C@@H]3C(=O)OC [GA4-methylester, GA4-methyl ester]	barely active		
	C=C1C[C@]23C[C@H]1CC[C@H]2[C@@]12CC[C@H](O)[C@@](C)(C(=O)O1)[C@H]2[C@@H]3C(=O)O [GA4]	most biologically active		
